Test results taken from patent US12686665B2, “Bicyclic fused ring derivative or salt thereof and pharmaceutical composition comprising same” (YUHAN CORPORATION, priority 2021, dated 2026).
Structures can show the parent of a compound that is named as a salt.

Columns and labels:
Assay type in all cases: biochemical
[1] = target: T1, recombinant human MAO-A (monoamine oxidase-A) (Homo sapiens, UniProt P21397); assay: Amplex Red HRP-coupled amine oxidase assay, recombinant human MAO-A; details: 0.5 mM tyramine substrate, read-out: Inhibitory activity (IC50, nM) MAO-A
T1 construct: purchased Sigma-Aldrich
T1 sequence (P21397 1-527): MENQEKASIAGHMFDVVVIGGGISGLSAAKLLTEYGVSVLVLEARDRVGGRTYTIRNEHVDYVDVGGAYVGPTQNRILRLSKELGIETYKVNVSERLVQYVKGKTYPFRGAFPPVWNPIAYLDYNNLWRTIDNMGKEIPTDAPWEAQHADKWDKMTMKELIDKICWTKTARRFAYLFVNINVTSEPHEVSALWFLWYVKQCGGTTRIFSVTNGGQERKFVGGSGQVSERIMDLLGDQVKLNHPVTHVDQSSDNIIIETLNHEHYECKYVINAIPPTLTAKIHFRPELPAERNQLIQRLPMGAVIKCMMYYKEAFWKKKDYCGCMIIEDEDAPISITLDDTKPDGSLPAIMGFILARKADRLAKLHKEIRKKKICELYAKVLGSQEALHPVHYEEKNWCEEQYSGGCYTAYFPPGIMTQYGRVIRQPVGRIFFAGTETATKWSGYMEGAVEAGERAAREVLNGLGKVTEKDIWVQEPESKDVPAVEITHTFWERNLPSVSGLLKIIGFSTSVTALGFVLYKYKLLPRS
Summary of the method: (§1)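 Enzyme preincubated 60 min at 37 °C with compound (six-point curve, 1% DMSO final) in 50 mM sodium phosphate pH 7.4, then Amplex Red 400 μM and HRP 2 U/mL added with substrate: MAO-A 0.5 mM tyramine, MAO-B 1 mM benzylamine, DAO 1 mM putrescine. Resorufin fluorescence read after 1 h; IC50 by four-parameter logistic fit.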

[2] = target: T2, recombinant human MAO-B (monoamine oxidase-B) (Homo sapiens, UniProt P27338); assay: Amplex Red HRP-coupled amine oxidase assay, recombinant human MAO-B; details: 1 mM benzylamine substrate, read-out: Inhibitory activity (IC50, nM) MAO-B
T2 construct: purchased Sigma-Aldrich
T2 sequence (P27338 1-520): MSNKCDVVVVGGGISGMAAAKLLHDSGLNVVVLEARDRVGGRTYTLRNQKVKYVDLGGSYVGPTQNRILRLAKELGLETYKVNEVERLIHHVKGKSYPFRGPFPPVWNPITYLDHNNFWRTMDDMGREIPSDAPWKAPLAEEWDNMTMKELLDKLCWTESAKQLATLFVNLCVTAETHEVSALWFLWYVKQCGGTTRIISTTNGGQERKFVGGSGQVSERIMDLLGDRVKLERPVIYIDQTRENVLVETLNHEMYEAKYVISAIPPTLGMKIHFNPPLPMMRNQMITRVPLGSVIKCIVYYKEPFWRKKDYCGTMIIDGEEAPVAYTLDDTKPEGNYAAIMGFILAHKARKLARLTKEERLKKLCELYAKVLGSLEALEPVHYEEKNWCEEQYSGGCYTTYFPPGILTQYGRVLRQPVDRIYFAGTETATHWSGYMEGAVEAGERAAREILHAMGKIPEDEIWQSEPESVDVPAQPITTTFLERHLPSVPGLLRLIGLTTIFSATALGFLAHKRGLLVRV
Summary of the method: as §1

[3] = target: T3, recombinant human DAO (diamine oxidase) (Homo sapiens, UniProt P19801); assay: Amplex Red HRP-coupled amine oxidase assay, recombinant human DAO; details: 1 mM putrescine substrate, read-out: Inhibitory activity (IC50, nM) DAO
T3 construct: purchased R&D systems
T3 sequence (P19801 20-751): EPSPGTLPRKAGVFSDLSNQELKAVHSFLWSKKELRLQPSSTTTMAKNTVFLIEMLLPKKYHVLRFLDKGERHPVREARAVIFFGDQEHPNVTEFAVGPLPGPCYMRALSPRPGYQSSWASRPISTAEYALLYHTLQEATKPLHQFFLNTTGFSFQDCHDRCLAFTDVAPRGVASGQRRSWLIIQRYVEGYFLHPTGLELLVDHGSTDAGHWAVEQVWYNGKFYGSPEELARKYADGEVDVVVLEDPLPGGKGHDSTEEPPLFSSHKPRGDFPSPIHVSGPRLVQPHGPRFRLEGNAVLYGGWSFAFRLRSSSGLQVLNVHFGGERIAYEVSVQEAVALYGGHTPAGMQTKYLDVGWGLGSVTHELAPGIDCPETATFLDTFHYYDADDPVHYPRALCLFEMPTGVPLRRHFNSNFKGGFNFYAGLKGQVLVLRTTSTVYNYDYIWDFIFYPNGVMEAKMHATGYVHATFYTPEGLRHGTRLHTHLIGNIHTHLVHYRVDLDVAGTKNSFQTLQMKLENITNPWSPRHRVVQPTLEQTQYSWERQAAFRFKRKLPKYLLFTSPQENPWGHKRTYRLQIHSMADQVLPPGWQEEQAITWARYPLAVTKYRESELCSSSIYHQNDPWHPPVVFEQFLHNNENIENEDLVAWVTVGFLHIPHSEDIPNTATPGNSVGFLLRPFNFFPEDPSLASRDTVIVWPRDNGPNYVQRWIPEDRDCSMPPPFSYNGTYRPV
Summary of the method: as §1

[4] = target: T4, recombinant human Lysyl Oxidase-Like 2 (LOXL2) (Homo sapiens, UniProt Q9Y4K0); assay: Amplex Red HRP-coupled amine oxidase assay, recombinant human LOXL2; details: 60 min incubation with enzyme at 37° C., putrescine substrate, read-out: Inhibitory activity (IC50, nM) human LOXL2
T4 construct: purchased R&D systems
T4 sequence (Q9Y4K0 26-774): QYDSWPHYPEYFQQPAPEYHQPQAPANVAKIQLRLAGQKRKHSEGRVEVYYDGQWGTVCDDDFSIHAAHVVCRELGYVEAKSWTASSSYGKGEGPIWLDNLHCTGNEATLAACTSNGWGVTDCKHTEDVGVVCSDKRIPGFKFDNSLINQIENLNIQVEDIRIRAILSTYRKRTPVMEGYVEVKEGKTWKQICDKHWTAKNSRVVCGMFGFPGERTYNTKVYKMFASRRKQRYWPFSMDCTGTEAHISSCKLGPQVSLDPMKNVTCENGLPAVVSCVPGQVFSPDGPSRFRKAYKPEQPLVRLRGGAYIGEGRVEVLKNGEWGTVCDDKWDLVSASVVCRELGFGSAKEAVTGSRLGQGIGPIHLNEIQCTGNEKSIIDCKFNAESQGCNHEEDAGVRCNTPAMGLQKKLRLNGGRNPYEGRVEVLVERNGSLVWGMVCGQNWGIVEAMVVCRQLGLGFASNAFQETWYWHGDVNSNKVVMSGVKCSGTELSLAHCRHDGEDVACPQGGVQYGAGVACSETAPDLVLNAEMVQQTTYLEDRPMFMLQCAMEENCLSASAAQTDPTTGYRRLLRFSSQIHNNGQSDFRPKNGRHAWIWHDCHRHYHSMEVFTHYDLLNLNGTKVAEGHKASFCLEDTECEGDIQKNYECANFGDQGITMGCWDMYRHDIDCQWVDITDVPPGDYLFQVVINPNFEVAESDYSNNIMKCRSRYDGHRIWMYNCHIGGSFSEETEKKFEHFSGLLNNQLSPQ
Summary of the method: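 Putrescine substrate (30 mM) in 50 mM sodium phosphate pH 7.4, 37 °C; compounds preincubated 60 min with enzyme, 1% DMSO final, six-point curves. H2O2 detected via 400 μM Amplex Red/2 U/mL HRP, fluorescence (ex 530/em 590 nm) after 1 h; IC50 from four-parameter logistic fit of % signal reduction.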

SMILES | IC50 [1] [nM] | IC50 [2] [nM] | IC50 [3] [nM] | IC50 [4] [nM]
CNS(=O)(=O)c1cccc(-c2cccc3c2nnn3C/C(F)=C/CN)c1 [Example 111, (Z)-3-(1-(4-amino-2-fluorobut-2-en-1-yl)-1H-benzo[d][1,2,3]triazol-4-yl)-N-methylbenzenesulfonamide hydrochloride] | > 100000 | > 100000 | 30700 | 35
CCc1nc2c(-c3cccc(S(=O)(=O)N(C)C)c3)cccc2n1C/C(F)=C/CN [Example 84, (Z)-3-(1-(4-amino-2-fluorobut-2-en-1-yl)-2-ethyl-1H-benzo[d]imidazol-4-yl)-N,N-dimethyl benzenesulfonamide hydrochloride] | 65000 | > 100000 | 6690 | 65
CNS(=O)(=O)c1ccc(OC)c(-c2cc(C(=O)OC)cc3c2nnn3C/C(F)=C/CN)c1 [Example 117, methyl (Z)-1-(4-amino-2-fluorobut-2-en-1-yl)-4-(2-methoxy-5-(N-methylsulfamoyl)phenyl)-1H-benzo[d][1,2,3]triazol-6-carboxylate hydrochloride] | > 100000 | 46600 | 4440 | 11.9
CN(C)S(=O)(=O)c1cccc(-c2cccc3c2nnn3C/C(F)=C/CN)c1 [Example 112, (Z)-3-(1-(4-amino-2-fluorobut-2-en-1-yl)-1H-benzo[d][1,2,3]triazol-4-yl)-N,N-dimethylbenzenesulfonamide hydrochloride] | > 100000 | 26500 | 32100 | 15
CNS(=O)(=O)c1cccc(-c2cc(F)cc3c2ncn3C/C(F)=C/CN)c1 [Example 10, (Z)-3-(1-(4-amino-2-fluorobut-2-en-1-yl)-6-fluoro-1H-benzo[d]imidazol-4-yl)-N-methylbenzenesulfonamide hydrochloride] | 65500 | > 100000 | 3920 | 22
CNS(=O)(=O)c1cccc(-c2cccc3c2nc(C(F)(F)F)n3C/C(F)=C/CN)c1 [Example 53, (Z)-3-(1-(4-amino-2-fluorobut-2-en-1-yl)-2-(trifluoromethyl)-1H-benzo[d]imidazol-4-yl)-N-methylbenzenesulfonamide hydrochloride] | > 100000 | > 100000 | > 100000 | 68
Cn1nccc1-c1cc(C(F)(F)F)cc2c1ncn2C/C(F)=C/CN [Example 176, (Z)-3-fluoro-4-(4-(1-methyl-1H-pyrazol-5-yl)-6-(trifluoromethyl)-1H-benzo[d]imidazol-1-yl) but-2-en-1-yl-amine hydrochloride] | > 100000 | > 100000 | 26700 | 92.4
NC/C=C(\F)Cn1cnc2c(-c3cncnc3)cc(C(F)(F)F)cc21 [Example 175, (Z)-3-fluoro-4-(4-(pyrimidin-5-yl)-6-(trifluoromethyl)-1H-benzo[d]imidazol-1-yl)but-2-en-1-amine hydrochloride] | > 100000 | > 100000 | 2580 | 259

These reach a lower IC50 [1]. Values come first.

IC50 [1] [nM] | IC50 [2] [nM] | IC50 [3] [nM] | IC50 [4] [nM] | SMILES
55100 | > 100000 | 36000 | 26 | CNS(=O)(=O)c1ccc(OC)c(-c2cccc3c2nnn3C/C(F)=C/CN)c1 [Example 105, (Z)-3-(1-(4-amino-2-fluorobut-2-en-1-yl)-1H-benzo[d][1,2,3]triazol-4-yl)-4-methoxy-N-methylbenzenesulfonamide hydrochloride]
47900 | > 100000 | 1810 | 58 | CNS(=O)(=O)c1cccc(-c2cc(C(=O)OC)cc3c2nc(C)n3C/C(F)=C/CN)c1 [Example 73, methyl (Z)-1-(4-amino-2-fluorobut-2-en-1-yl)-2-methyl-4-(3-(N-methylsulfamoyl)phenyl)-1H-benzo[d]imidazol-6-carboxylate hydrochloride]
45700 | > 100000 | 16100 | 31.3 | COC(=O)c1cc(-c2cc(S(=O)(=O)NC3CC3)ccc2OC)c2ncn(C/C(F)=C/CN)c2c1 [Example 27, methyl (Z)-1-(4-amino-2-fluorobut-2-en-1-yl)-4-(5-(N-cyclopropylsulfamoyl)-2-methoxyphenyl)-1H-benzo[d]imidazol-6-carboxylate hydrochloride]
26900 | > 100000 | 5400 | 273 | CC(=O)c1ccc(F)c(-c2cc(C(F)(F)F)cc3c2ncn3C/C(F)=C/CN)c1 [Example 169, (Z)-1-(3-(1-(4-amino-2-fluorobut-2-en-1-yl)-6-(trifluoromethyl)-1H-benzo[d]imidazol-4-yl)-4-fluorophenyl)ethan-1-one hydrochloride]
26500 | > 100000 | 2410 | 35 | NC/C=C(\F)Cn1cnc2c(-c3cccc(S(=O)(=O)N4CCCC4)c3)cc(F)cc21 [Example 7, (Z)-3-fluoro-4-(6-fluoro-4-(3-(pyrrolidin-1-ylsulfonyl)phenyl)-1H-benzo[d]imidazol-1-yl)but-2-en-1-amine hydrochloride]
17800 | 51600 | 3520 | 311 | NC/C=C(\F)Cn1cnc2c(-c3cccnc3)cc(C(F)(F)F)cc21 [Example 172, (Z)-3-fluoro-4-(4-(pyridin-3-yl)-6-(trifluoromethyl)-1H-benzo[d]imidazol-1-yl)but-2-en-1-amine hydrochloride]
